Experimental data reported in PubChem BioAssay (NCI).
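1) Cells in 96-well plates. 2) Compound, 48 h, 5 concentrations. 3) Linear interpolation between surrounding doses. 4) Unreached endpoint = highest concentration. TGI: concentration producing complete growth inhibition.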

Key:
Experiment in all cases: NCI tumour cell line growth inhibition, 48 h
MDA-MB-231 breast = test system: MDA-MB-231 breast
OVCAR-8 ovarian = test system: OVCAR-8 ovarian
NCI-H226 lung = test system: NCI-H226 lung
U251 CNS = test system: U251 CNS
HL-60(TB) leukemia = test system: HL-60(TB) leukemia
T-47D breast = test system: T-47D breast
MCF7 breast = test system: MCF7 breast
ACHN renal = test system: ACHN renal
SF-295 CNS = test system: SF-295 CNS
NCI/ADR-RES ovarian = test system: NCI/ADR-RES ovarian
HCT-116 colon = test system: HCT-116 colon
SNB-19 CNS = test system: SNB-19 CNS
KM12 colon = test system: KM12 colon
NCI-H460 lung = test system: NCI-H460 lung
CCRF-CEM leukemia = test system: CCRF-CEM leukemia
MDA-MB-435 = test system: MDA-MB-435
MOLT-4 leukemia = test system: MOLT-4 leukemia
SN12C renal = test system: SN12C renal
BT-549 breast = test system: BT-549 breast
SR leukemia = test system: SR leukemia
HOP-62 NSCLC = test system: HOP-62 NSCLC
M14 melanoma = test system: M14 melanoma
PC-3 prostate = test system: PC-3 prostate
SNB-75 CNS = test system: SNB-75 CNS
MDA-N = test system: MDA-N
SK-MEL-5 melanoma = test system: SK-MEL-5 melanoma
OVCAR-5 ovarian = test system: OVCAR-5 ovarian
A549 NSCLC = test system: A549 NSCLC
EKVX NSCLC = test system: EKVX NSCLC
OVCAR-4 ovarian = test system: OVCAR-4 ovarian
NCI-H23 lung = test system: NCI-H23 lung
SF-268 CNS = test system: SF-268 CNS
786-0 renal = test system: 786-0 renal
COLO 205 colon = test system: COLO 205 colon
MALME-3M melanoma = test system: MALME-3M melanoma
SK-OV-3 ovarian = test system: SK-OV-3 ovarian
OVCAR-3 ovarian = test system: OVCAR-3 ovarian
HS 578T breast = test system: HS 578T breast
UACC-62 melanoma = test system: UACC-62 melanoma
SK-MEL-2 melanoma = test system: SK-MEL-2 melanoma
RPMI-8226 leukemia = test system: RPMI-8226 leukemia
LOX IMVI melanoma = test system: LOX IMVI melanoma
HCT-15 colon = test system: HCT-15 colon
TK-10 renal = test system: TK-10 renal
HT29 colon = test system: HT29 colon
SW-620 colon = test system: SW-620 colon
HCC-2998 colon = test system: HCC-2998 colon
SK-MEL-28 melanoma = test system: SK-MEL-28 melanoma
UACC-257 melanoma = test system: UACC-257 melanoma
DU-145 prostate = test system: DU-145 prostate
K-562 leukemia = test system: K-562 leukemia
UO-31 renal = test system: UO-31 renal
IGROV1 ovarian = test system: IGROV1 ovarian
CAKI-1 renal = test system: CAKI-1 renal
RXF 393 renal = test system: RXF 393 renal
HOP-92 NSCLC = test system: HOP-92 NSCLC
NCI-H522 lung = test system: NCI-H522 lung
A498 renal = test system: A498 renal
SF-539 CNS = test system: SF-539 CNS

Measured: TGI

CN1CCC(O)(C(C)(C)C)CC1
not listed: HOP-92 NSCLC | NCI-H522 lung | A498 renal | SF-539 CNS
> 100 µM: all other assays above

NP(=O)(Oc1c2occc2cc2ccc(=O)oc12)N(CCCl)CCCl (stereo not given)
not listed: SNB-75 CNS | SK-OV-3 ovarian
> 100 µM: all other assays above

CN1C(=O)c2cccc3cc([N+](=O)[O-])cc(c23)C1=O
not listed: NCI-H226 lung | NCI-H460 lung | EKVX NSCLC | SK-MEL-2 melanoma | UO-31 renal | RXF 393 renal | A498 renal
> 10 µM: all other assays above

CCOC(=O)/C=C(/C(=O)OCC)n1ccc(=O)n(Cc2cn(COCCOC(C)=O)nn2)c1=O
48.1 µM: NCI/ADR-RES ovarian
41.9 µM: LOX IMVI melanoma
28.3 µM: MCF7 breast
35.1 µM: SK-MEL-28 melanoma
75.4 µM: SK-MEL-5 melanoma
50.3 µM: RPMI-8226 leukemia
67.9 µM: MDA-MB-231 breast
29 µM: NCI-H460 lung | SW-620 colon
56.1 µM: A498 renal
31.9 µM: HT29 colon | UO-31 renal | IGROV1 ovarian
4.8 µM: CCRF-CEM leukemia
41.3 µM: MOLT-4 leukemia
56.2 µM: RXF 393 renal
14 µM: CAKI-1 renal
34.5 µM: SF-539 CNS
36.2 µM: HCC-2998 colon
83.3 µM: U251 CNS
55.6 µM: HCT-15 colon
16 µM: NCI-H522 lung
33.5 µM: SF-268 CNS
42.4 µM: UACC-257 melanoma
41.4 µM: NCI-H23 lung
32 µM: TK-10 renal
35.2 µM: OVCAR-5 ovarian
80.8 µM: HCT-116 colon
28 µM: ACHN renal
42.7 µM: OVCAR-4 ovarian
35.9 µM: KM12 colon
33.4 µM: OVCAR-3 ovarian
30.4 µM: BT-549 breast
70.9 µM: HS 578T breast
81 µM: T-47D breast
64.4 µM: SK-MEL-2 melanoma
36 µM: MDA-MB-435
52.6 µM: SR leukemia
36.7 µM: UACC-62 melanoma
30.6 µM: EKVX NSCLC
5.04 µM: HOP-92 NSCLC
30 µM: OVCAR-8 ovarian
not listed: HL-60(TB) leukemia | M14 melanoma | MALME-3M melanoma
> 100 µM: all other assays above
